# Experiment: Tissue concentration of aprepitant by HPLC after oral or inhaled administration to rabbits
# Type: in vivo, New Zealand albino rabbits
# Details: rabbit
# Description: Herein, New Zealand albino rabbits (New Zealand White Rabbits) with an initial average weight of approximately 3 kg were used. The rabbits were fed ad libitum and were monitored daily to check that signs of toxicity had not appeared. […] This mixture was administered as an aerosol to the airways of a group of 3 of said rabbits (Group 5) in a dose of 0.05 mg/kg body weight per day, to another group of three rabbits (Group 6) in a dose of 0.1 mg/kg body weight per day, to another group of three rabbits (group 7) in a dose of 0.2 mg/kg body weight per day and to another group of three rabbits (Group 8) in a dose of 0.4 mg/kg body weight per day. […] After seven days of treatment all animals were euthanized and necropsied. […] Samples were taken at the peripheral level of the lung parenchyma, just below the pleural surface. Tissue samples were also taken from the nasal cavity, pharynx, larynx and bronchi. […] The average is the arithmetic average calculated for each row or column of each table. The SD is the standard deviation, calculated for each row or column of each table.
compound,measurement,setting,value
"C[C@@H](OC1OCCN(Cc2nc(=O)[nH][nH]2)C1c1ccc(F)cc1)c1cc(C(F)(F)F)cc(C(F)(F)F)c1 (stereo in doubt) [Aprepitant, 5-([(2R,3S)-2-((R)-1-[3,5-bis(trifluoromethyl)phenyl]ethoxy)-3-(4-fluorophenyl)morpholino]methyl)-1H-1,2,4-triazol-3(2H)-one]",concentration at 7 days,"New Zealand White (albino), lung, right inferior lobe, po, 100 mg/kg/day, Lung concentration of aprepitant LIPD (right inferior lobe), Group 4, oral 100 mg/kg per day, seven days, individual cases",4900 ng/g
same,concentration at 7 days,"New Zealand White (albino), lung, right inferior lobe, po, 100 mg/kg/day, Lung concentration of aprepitant LIPD, Average ± SD of cases, Group 4, oral 100 mg/kg per day, seven days",5600 ng/g
same,concentration at 7 days,"New Zealand White (albino), lung, right middle lobe, inhaled, 0.05 mg/kg/day, Lung concentration of aprepitant LMPD (right middle lobe), Group 5, inhalation (aerosol, olive oil) 0.05 mg/kg per day, seven days, individual cases",1500 ng/g
same,concentration at 7 days,"New Zealand White (albino), lung, right middle lobe, inhaled, 0.05 mg/kg/day, Lung concentration of aprepitant LMPD, Average ± SD of cases, Group 5, inhalation (aerosol, olive oil) 0.05 mg/kg per day, seven days",1500 ng/g
same,concentration at 7 days,"New Zealand White (albino), lung, right middle lobe, inhaled, 0.1 mg/kg/day, Lung concentration of aprepitant LMPD (right middle lobe), Group 6, inhalation (aerosol, olive oil) 0.1 mg/kg per day, seven days, individual cases",2900 ng/g
same,concentration at 7 days,"New Zealand White (albino), lung, right middle lobe, inhaled, 0.1 mg/kg/day, Lung concentration of aprepitant LMPD, Average ± SD of cases, Group 6, inhalation (aerosol, olive oil) 0.1 mg/kg per day, seven days",2900 ng/g
same,concentration at 7 days,"New Zealand White (albino), lung, right middle lobe, inhaled, 0.2 mg/kg/day, Lung concentration of aprepitant LMPD (right middle lobe), Group 7, inhalation (aerosol, olive oil) 0.2 mg/kg per day, seven days, individual cases",6000 ng/g
same,concentration at 7 days,"New Zealand White (albino), lung, right middle lobe, inhaled, 0.2 mg/kg/day, Lung concentration of aprepitant LMPD, Average ± SD of cases, Group 7, inhalation (aerosol, olive oil) 0.2 mg/kg per day, seven days",6030 ng/g
same,concentration at 7 days,"New Zealand White (albino), lung, right middle lobe, po, 100 mg/kg/day, Lung concentration of aprepitant LMPD, Average ± SD of cases, Group 4, oral 100 mg/kg per day, seven days",5400 ng/g
same,concentration at 7 days,"New Zealand White (albino), lung, right superior lobe, inhaled, 0.05 mg/kg/day, Lung concentration of aprepitant LSPD (right superior lobe), Group 5, inhalation (aerosol, olive oil) 0.05 mg/kg per day, seven days, individual cases",1400 ng/g
same,concentration at 7 days,"New Zealand White (albino), lung, right superior lobe, inhaled, 0.05 mg/kg/day, Lung concentration of aprepitant LSPD, Average ± SD of cases, Group 5, inhalation (aerosol, olive oil) 0.05 mg/kg per day, seven days",1400 ng/g
same,concentration at 7 days,"New Zealand White (albino), lung, right superior lobe, inhaled, 0.1 mg/kg/day, Lung concentration of aprepitant LSPD (right superior lobe), Group 6, inhalation (aerosol, olive oil) 0.1 mg/kg per day, seven days, individual cases",2900 ng/g
same,concentration at 7 days,"New Zealand White (albino), lung, right superior lobe, inhaled, 0.1 mg/kg/day, Lung concentration of aprepitant LSPD, Average ± SD of cases, Group 6, inhalation (aerosol, olive oil) 0.1 mg/kg per day, seven days",2800 ng/g
same,concentration at 7 days,"New Zealand White (albino), lung, right superior lobe, inhaled, 0.2 mg/kg/day, Lung concentration of aprepitant LSPD (right superior lobe), Group 7, inhalation (aerosol, olive oil) 0.2 mg/kg per day, seven days, individual cases",6100 ng/g
same,concentration at 7 days,"New Zealand White (albino), lung, right superior lobe, inhaled, 0.2 mg/kg/day, Lung concentration of aprepitant LSPD, Average ± SD of cases, Group 7, inhalation (aerosol, olive oil) 0.2 mg/kg per day, seven days",6000 ng/g
same,concentration at 7 days,"New Zealand White (albino), lung, right superior lobe, po, 100 mg/kg/day, Lung concentration of aprepitant LSPD, Average ± SD of cases, Group 4, oral 100 mg/kg per day, seven days",4700 ng/g
same,concentration at 7 days,"New Zealand White, in vivo, 0.4 mg/kg/day, Lung concentration of aprepitant, Average ± SD of the five lobes per case",9900 ng/g
same,concentration at 7 days,"New Zealand White, in vivo, po, 10 mg/kg/day, Lung concentration of aprepitant, Average ± SD of the five lobes per case",960 ng/g
same,concentration at 7 days,"New Zealand White, in vivo, po, 40 mg/kg/day, Lung concentration of aprepitant, Average ± SD of the five lobes per case",4200 ng/g
same,concentration at 7 days,"New Zealand White, in vivo, po, 80 mg/kg/day, Lung concentration of aprepitant, Average ± SD of the five lobes per case",4400 ng/g
same,concentration at 7 days,"New Zealand White, lung, left inferior lobe, inhaled, 0.2 mg/kg/day, Lung concentration of aprepitant LIPI, Average ± SD of cases, Group 7, inhalation (aerosol, olive oil) 0.2 mg/kg per day, seven days",5900 ng/g
same,concentration at 7 days,"New Zealand White, lung, left inferior lobe, inhaled, 0.4 mg/kg/day, Lung concentration of aprepitant LIPI (left inferior lobe), Group 8, inhalation (aerosol, olive oil) 0.4 mg/kg per day, seven days, individual cases",10000 ng/g
same,concentration at 7 days,"New Zealand White, lung, left inferior lobe, inhaled, 0.4 mg/kg/day, Lung concentration of aprepitant LIPI, Average ± SD of cases, Group 8, inhalation (aerosol, olive oil) 0.4 mg/kg per day, seven days",10000 ng/g
same,concentration at 7 days,"New Zealand White, lung, left inferior lobe, po, 10 mg/kg/day, Lung concentration of aprepitant LIPI (left inferior lobe), Group 1, oral 10 mg/kg per day, seven days, individual cases",1500 ng/g
same,concentration at 7 days,"New Zealand White, lung, left inferior lobe, po, 10 mg/kg/day, Lung concentration of aprepitant LIPI, Average ± SD of cases, Group 1, oral 10 mg/kg per day, seven days",1300 ng/g
same,concentration at 7 days,"New Zealand White, lung, left inferior lobe, po, 40 mg/kg/day, Lung concentration of aprepitant LIPI (left inferior lobe), Group 2, oral 40 mg/kg per day, seven days, individual cases",5400 ng/g
same,concentration at 7 days,"New Zealand White, lung, left inferior lobe, po, 40 mg/kg/day, Lung concentration of aprepitant LIPI, Average ± SD of cases, Group 2, oral 40 mg/kg per day, seven days",4000 ng/g
same,concentration at 7 days,"New Zealand White, lung, left inferior lobe, po, 80 mg/kg/day, Lung concentration of aprepitant LIPI (left inferior lobe), Group 3, oral 80 mg/kg per day, seven days, individual cases",3600 ng/g
same,concentration at 7 days,"New Zealand White, lung, left inferior lobe, po, 80 mg/kg/day, Lung concentration of aprepitant LIPI, Average ± SD of cases, Group 3, oral 80 mg/kg per day, seven days",3700 ng/g
same,concentration at 7 days,"New Zealand White, lung, left superior lobe, inhaled, 0.2 mg/kg/day, Lung concentration of aprepitant LSPI, Average ± SD of cases, Group 7, inhalation (aerosol, olive oil) 0.2 mg/kg per day, seven days",6030 ng/g
same,concentration at 7 days,"New Zealand White, lung, left superior lobe, inhaled, 0.4 mg/kg/day, Lung concentration of aprepitant LSPI (left superior lobe), Group 8, inhalation (aerosol, olive oil) 0.4 mg/kg per day, seven days, individual cases",9900 ng/g
same,concentration at 7 days,"New Zealand White, lung, left superior lobe, inhaled, 0.4 mg/kg/day, Lung concentration of aprepitant LSPI, Average ± SD of cases, Group 8, inhalation (aerosol, olive oil) 0.4 mg/kg per day, seven days",10000 ng/g
